Laboratory results as given in patent US6734165B2, “Method for re-sensitizing vancomycin resistant bacteria which selectively cleave a cell wall depsipeptide” (The Trustees of Columbia University in the City of New York, priority 2001, dated 2004).
Where two headings read alike, the source gives them in different places.

How the values were obtained:
[1] = tested on: enterococcus; settings: cited from earlier work
[2] = incorporation of D—Ala—D—Lac by VRE; cited from earlier work
[3] = Hydrolysis of D—Ala—D—Lac depsipeptide derivative 5 in aqueous phosphate buffer, followed by HPLC; assay type: biochemical; settings: substrate 5 0.5 mM, phosphate buffer pH 7.0, 37° C.; for effect on the rate of hydrolysis over buffer: peptides 12 mM
Procedure: The ability of peptide 4a in cleaving the substrate 5 was assessed in aqueous phosphate buffer pH=7 at 37° C. Stock solutions of 16 mM of 5 and 130 mM of peptide were made in water. Phosphate buffer solution of 25 mM was made by adjusting the pH of a K2HPO4 solution to 7.0 by addition of concentrated HCl. To a 1.5 mL glass vial (Waters) were added 5 μL stock solution of 5 and 15 μL stock solution of peptide, followed by 135 μL buffer. The volume was adjusted to 160 μL by addition of water. Vials were kept in an incubator at 37° C. and 2 μL aliquots were taken every 3 h. Each aliquot was diluted with water to 5 μL and 2 μL were injected in HPLC. Separation of components was carried out on a reverse phase column C18 (Waters) using a gradient water/acetonitrile (0.1% TFA).
Using HPLC and monitoring the p-NO2-phenyl derivative by UV at 275 nm, we could easily follow the disappearance of D—Ala—D—Lac derivative 5 and the formation of the hydrolyzed product 4. Under these conditions, we observed a 20% cleavage of the depsipeptide in 24 hrs. […] This proves that the whole structural assembly is necessary for the reaction to occur and that the reaction is not an artifact resulted by a change in the pH of the media due to the presence of the amine functionality.
N-acylated prolinol derivatives (FIG. 5) are the simplest structures that could fulfill such requirements. Their primary alcohol functionality forms an internal H-bond with the amide, the structures allow for the addition of the […] (NH2) through various linkers and moreover, are chiral molecules. The derivatives were tested for their ability to cleave 5 in aqueous phosphate buffer pH=7.0 at 37° C. (FIG. 6). […] One explanation for the higher activity of the very simple molecule SProC5 compared to 4a is the enhanced nucleophilicity of its hydroxyl (H position in H^1 NMR 7.59 ppm vs 6.62 ppm). Activity declines in the series with the decrease of the chain length from 5 carbons to 1 carbon. […] To confirm these speculations we compared the chemical shifts of the OH and NH in the H^1 NMR spectra of the NHBoc protected SProCn series (Table 1).
Substrate 5 was used at 0.5 mM, while prolinol derivatives were run at 12 mM. The graph is the average of three separate assays (FIG. 6).
The ability of peptide 4a in cleaving the substrate 5 was assessed in aqueous phosphate buffer pH 7 at 37° C. Using HPLC and monitoring the p-NO2-phenyl derivative by UV at 275 nm, we could easily follow the disappearance of D—Ala—D—Lac derivative 5 and the formation of the hydrolyzed product 4. […] A 20% hydrolysis of D—Ala—D—Lac in the presence of 4a was observed after 24 h.
The prolinol derivatives were additionally, tested for their ability to cleave 5 in aqueous phosphate buffer pH 7.0 at 37° C. […]

[4] = Combinatorial library screening on beads against red dye-labeled substrate 1; settings: substrate 1 in 12DCE or DMF, 3-5 days
Procedure: Substrate 1 is treated with combinatorial libraries of potential nucleophiles on solid phase synthesis beads (2), and then those library members are selected that covalently linked the dye to a bead (3). This could be possible assuming that noncovalently bound material would be washed away with a polar solvent (Scheme 2). [drawing 4]
The assay for screening these libraries against 1 involves shaking a desired amount of library beads with the solution of labeled substrate for a period of time. To the library beads were added 200 μL solution of substrate 1 in 12DCE (or DMF), and the mixture was rotated for 3-5 days in a small glass vial. DMF was added and shaking continued for 1 h. Solvent was removed and the washing was repeated several times. One wash was performed with one drop of benzylamine added to DMF to remove any remaining physically bound substrate. The strongly red beads were picked individually in 1.5 μL DMF (in 25 μL capillaries) and photolysed for 6 h under a short wave UV lamp. Decoding was achieved by injecting the content of each capillary in EC-GC and comparing the chromatogram to a standard (20,21).
After the reaction occurred, the label-carrying beads were selected and analyzed (20,21). The initial assays were performed in 1,2-dichloroethane (12DCE) at a concentration of 2.3 mM in substrate 1.
The assay for screening these libraries against 1 involved shaking a desired amount of library beads with the solution of labeled substrate for a period of time. After the reaction occured, the label-carrying beads were selected and analyzed. The initial assays were performed in 1,2-dichloroethane (12DCE) at a concentration of 2.3 mM in substrate 1. After 3 days of shaking, the beads were extensively washed with dimethylformamide (DMF) and once with a diluted solution of benzylamine in DMF to remove any physically bound substrate (FIGS. 9A and 9B).

## CN[C@H](CC(C)C)C(=O)N[C@H]1C(=O)N[C@@H](CC(N)=O)C(=O)N[C@H]2C(=O)N[C@H]3C(=O)N[C@H](C(=O)N[C@H](C(=O)O)c4cc(O)cc(O)c4-c4cc3ccc4O)[C@H](O)c3ccc(c(Cl)c3)Oc3cc2cc(c3O[C@@H]2O[C@H](CO)[C@@H](O)[C@H](O)[C@H]2O[C@H]2C[C@](C)(N)[C@H](O)[C@H](C)O2)Oc2ccc(cc2Cl)[C@H]1O [vancomycin]
[1]; 10% of the peptidoglycan altered to D—Ala—D—Lac
  MIC of vancomycin: 32 µg/mL
[1]; unaltered peptidoglycan
  MIC of vancomycin: 2 µg/mL
[2]
  decrease of affinity of vancomycin for the peptidoglycan layer: over 1000 fold

## BnNHD—Pro—L—Ser(OH)NHCONMe2 [compound 6]
[3]
  effect on the rate of hydrolysis over buffer: No significant effect

## BnNHL—LysNHAc [compound 8]
[3]
  effect on the rate of hydrolysis over buffer: No significant effect

## BnNHL—Lys—D—Pro—L—Ser(tBut)CONMe2 [compound 7]
[3]
  effect on the rate of hydrolysis over buffer: No significant effect

## BnNHL—Lys—D—Pro—L—SerCONMe2 [4a]
[3]; compound 12 mM, 24 h
  cleavage of the depsipeptide in 24 hrs: 20%

## D—Asn—L—Lys—L—Pro—L—SerNH2
[4]
  activity in bead screening (red beads / active sequence): active sequence

## D—Lys—L—Pro—D—Ser dimethylurea
[4]
  activity in bead screening (red beads / active sequence): never found as an active sequence

## L—Lys—D—Pro—L—Ser dimethylurea
[4]
  activity in bead screening (red beads / active sequence): an active sequence found more frequently in the assays
